Measured values taken from paper PMC7496096, “Functional Characterisation of ClpP Mutations Conferring Resistance to Acyldepsipeptide Antibiotics in Firmicutes” (Chembiochem, 2020).
Converted amounts (≈) assume the structure as drawn. Where two headings read alike, the source gives them in different places. Positions of bridges follow the written chain, without caps; N, C: chain ends. Non-standard residues stand in square brackets, D forms with d. Residues, ends and D or L forms follow the SMILES beside them. *: point of attachment. Octatrienoyl(2E,4E,6E) = C/C=C/C=C/C=C/C(=O)*; Pro(4R-Me) = C[C@H]1CN[C@H](C(=O)O)C1; NMeA = CN[C@@H](C)C(=O)O; X1 = CCC/C=C/C(=O)*

Experiments:
[1] = test system: S. aureus 133; test: microbe, parasite or virus in culture; type: cell-based, Staphylococcus aureus; settings: broth microdilution, Mueller-Hinton broth (without cation adjustment), CLSI, inoculum 5×10^4 CFU mL^−1, wild type
Method: (§1) Determination of antibacterial activity: ADEP1 was purified from the culture supernatant of S. hawaiiensis NRRL 15010 as described.4 ADEPs 2, 4, 7, 9 were custom synthesised by EMC Microcollections, Tübingen, or provided by AiCuris, Wuppertal, Germany. The minimal inhibitory concentration (MIC) was determined by broth microdilution in Mueller‐Hinton broth (without cation adjustment) according to the guidelines of the Clinical Laboratory Standards Institute (CLSI).69 The inoculum was set to 5×10^4 CFU mL^−1 to allow some distance to the determined spontaneous resistance frequencies. […] All other ADEPs were used from DMSO stock solutions kept at −20 °C.

[2] = test system: S. aureus ATCC 29213; test: microbe, parasite or virus in culture; type: cell-based, Staphylococcus aureus; settings: broth microdilution, Mueller-Hinton broth (without cation adjustment), CLSI, inoculum 5×10^4 CFU mL^−1, wild type
Method: as §1

[3] = test system: B. subtilis 168; test: microbe, parasite or virus in culture; type: cell-based, Bacillus subtilis; settings: broth microdilution, Mueller-Hinton broth (without cation adjustment), CLSI, inoculum 5×10^4 CFU mL^−1, wild type
Method: as §1

[4] = test system: E. faecalis ATCC 29212; test: microbe, parasite or virus in culture; type: cell-based, Enterococcus faecalis; settings: broth microdilution, Mueller-Hinton broth (without cation adjustment), CLSI, inoculum 5×10^4 CFU mL^−1, wild type
Method: as §1

[5] = test system: E. faecalis 27159; type: cell-based, Enterococcus faecalis; settings: broth microdilution, Mueller-Hinton broth; wildtype
Method: as §1

[6] = test system: S. pyogenes Wacker; type: cell-based, Streptococcus pyogenes; settings: broth microdilution, Mueller-Hinton broth; wildtype
Method: as §1

[7] = test system: S. pneumoniae G9A; type: cell-based, Streptococcus pneumoniae; settings: broth microdilution, Mueller-Hinton broth; wildtype
Method: as §1

[8] = test system: E. faecalis RC1; type: cell-based, Enterococcus faecalis; settings: resistant clone of E. faecalis 27159; ClpP G100→STOP (A96→V; M99→Y), premature stop
Method: as §1
(§2) Screening for ADEP‐resistant mutants and determination of resistance rates: Single colonies of wild‐type strains grown on Mueller‐Hinton agar plates overnight were suspended in sterile saline and a final inoculum of 5×10^6 cells was spread on plates supplemented with different ADEP congeners at 4× and 10× the MIC. For B. subtilis strain 3xclpP, ADEP7‐containing Mueller‐Hinton agar plates were additionally supplemented with 1 mM IPTG. Resistant colonies were counted after 24 h at 37 °C and colonies were randomly chosen for MIC determinations and sequencing. Mutations in the clpP gene of the respective isolated mutants were analysed by amplifying the clpP gene (and upstream promoter region) by PCR and sequencing of the resulting PCR amplicons (LGC genomics). Sequencing data were analysed by using SnapGene software (GSL Biotech).

[9] = test system: E. faecalis RC2; type: cell-based, Enterococcus faecalis; settings: resistant clone of E. faecalis 27159; ClpP H123→Q, active site
Method: as §1, §2

[10] = test system: E. faecalis RC3; type: cell-based, Enterococcus faecalis; settings: resistant clone of E. faecalis 27159; ClpP G74→D (ClpP core; α3)
Method: as §1, §2

[11] = test system: E. faecalis RC4; type: cell-based, Enterococcus faecalis; settings: resistant clone of E. faecalis 27159; ClpP S43→STOP, premature stop
Method: as §1, §2

[12] = test system: E. faecalis RC5; type: cell-based, Enterococcus faecalis; settings: resistant clone of E. faecalis 27159; ClpP A180→V (C-terminus; α7)
Method: as §1, §2

[13] = test system: E. faecalis RC6; type: cell-based, Enterococcus faecalis; settings: resistant clone of E. faecalis 27159; ClpP R147→H (equatorial interface; α5)
Method: as §1, §2

[14] = test system: E. faecalis RC7; type: cell-based, Enterococcus faecalis; settings: resistant clone of E. faecalis 27159; ClpP G68→D (ClpP core)
Method: as §1, §2

[15] = test system: E. faecalis RC8; type: cell-based, Enterococcus faecalis; settings: resistant clone of E. faecalis 27159; ClpP D170→Y, oligomerisation sensor
Method: as §1, §2

[16] = test system: S. pyogenes RC1; type: cell-based, Streptococcus pyogenes; settings: resistant clone of S. pyogenes Wacker; Y insertion after N40 (ClpP core; α2)
Method: as §1
as §2, with “Resistant colonies were counted after 24 h at 37 °C and colonies were randomly chosen for MIC determinations and sequencing.” left out

[17] = test system: S. pyogenes RC2; type: cell-based, Streptococcus pyogenes; settings: resistant clone of S. pyogenes Wacker; ClpP L46→P (ClpP core; α2)
Method: as §1
as §2, with “Resistant colonies were counted after 24 h at 37 °C and colonies were randomly chosen for MIC determinations and sequencing.” left out

[18] = test system: S. pneumoniae RC1; type: cell-based, Streptococcus pneumoniae; settings: resistant clone of S. pneumoniae G9A; ClpP A94→G (ClpP core; β4)
Method: as §1, §2

[19] = test system: S. pneumoniae RC2; type: cell-based, Streptococcus pneumoniae; settings: resistant clone of S. pneumoniae G9A; ClpP START→I, no expression
Method: as §1, §2

[20] = test system: S. pneumoniae RC3; type: cell-based, Streptococcus pneumoniae; settings: resistant clone of S. pneumoniae G9A; ClpP R171→H, oligomerisation sensor
Method: as §1, §2

[21] = test system: B. subtilis RC13; type: cell-based, Bacillus subtilis; settings: resistant clone of B. subtilis 168; ClpP I93→STOP, premature stop
Method: as §1, §2

[22] = test system: B. subtilis RC14; type: cell-based, Bacillus subtilis; settings: resistant clone of B. subtilis 168; ClpP G107→S (ClpP core)
Method: as §1, §2

[23] = test system: B. subtilis RC15; type: cell-based, Bacillus subtilis; settings: resistant clone of B. subtilis 168; ClpP G69→S (ClpP core)
Method: as §1, §2

[24] = test system: B. subtilis RC16; type: cell-based, Bacillus subtilis; settings: resistant clone of B. subtilis 168; ClpP I44→F (ClpP core; α2)
Method: as §1, §2

[25] = test system: B. subtilis RC17; type: cell-based, Bacillus subtilis; settings: resistant clone of B. subtilis 168; ClpP D172→V, active site
Method: as §1, §2

[26] = test system: B. subtilis RC18; type: cell-based, Bacillus subtilis; settings: resistant clone of B. subtilis 168; ClpP L190→S, ADEP binding site
Method: as §1, §2

[27] = test system: B. subtilis RC19; type: cell-based, Bacillus subtilis; settings: resistant clone of B. subtilis 168; ClpP Y183→C (C-terminus; α7)
Method: as §1, §2

[28] = Stability of dissolved compound; type: physicochemical; settings: dissolved in DMSO; reason for fresh dissolution before MIC determination
Method: as §1

[29] = test system: B. subtilis, Enterococcus faecium, E. faecalis, S. pneumoniae, and Streptococcus pyogenes; test: Spontaneous resistance frequency, further Firmicutes; type: cell-based; settings: same range as the S. aureus resistance rates (10^−6)
Method: as §2

[30] = test system: S. aureus 133; test: Spontaneous resistance rate on ADEP-containing agar; type: cell-based, Staphylococcus aureus; settings: ADEP exposure 4× MIC in Mueller-Hinton agar; 5×10^6 cells plated, colonies counted after 24 h at 37 °C
Method: as §2

[31] = test system: S. aureus ATCC 29213; test: as above; type: cell-based, Staphylococcus aureus; settings: ADEP exposure 4× MIC in Mueller-Hinton agar; 5×10^6 cells plated, colonies counted after 24 h at 37 °C
Method: as §2

[32] = test system: S. aureus; test: MIC against S. aureus, summary of Table 1; type: cell-based, Staphylococcus aureus; settings: text summary of Table 1, strain not named
Method: as §1

With `C[C@H]1c2cccc(O)c2C(=O)C2=C(O)[C@]3(O)C(=O)C(C(N)=O)=C(O)[C@@H](N(C)C)[C@@H]3[C@@H](O)[C@@H]21` [Doxycycline, reference compound] the MIC ([1]; Staphylococcus aureus, 133, read-out: MIC) was 0.06 µg/mL (≈ 0.135 µM), the MIC ([2]; Staphylococcus aureus, ATCC29213, read-out: MIC) was 0.06 µg/mL (≈ 0.135 µM) and the MIC ([3]; Bacillus subtilis, 168, read-out: MIC) was 0.125 µg/mL (≈ 0.281 µM). For the same compound, the MIC ([4]; Enterococcus faecalis, ATCC29212, read-out: MIC) was 4 to 8 µg/mL (≈ 9 to 18 µM).
`C/C=C/C=C/C=C/C(=O)N[C@@H](Cc1ccccc1)C(=O)N[C@H]1COC(=O)[C@@H]2C[C@@H](C)CN2C(=O)[C@H](C)NC(=O)[C@H](C)N(C)C(=O)[C@@H]2CCCN2C1=O` [ADEP1] ({Octatrienoyl(2E,4E,6E)}-FSP[NMeA]A[Pro(4R-Me)]; ester 2-C) showed an MIC [1] of 0.5 µg/mL (≈ 0.696 µM), an MIC [2] of 1 µg/mL (≈ 1.39 µM) and an MIC [3] of 0.063 µg/mL (≈ 0.0876 µM). The MIC [4] was 0.063 µg/mL (≈ 0.0876 µM), the MIC [5] was 0.12 µg/mL (≈ 0.167 µM) and the MIC [6] was 0.12 µg/mL (≈ 0.167 µM). For the same compound, the MIC [7] was 0.12 µg/mL (≈ 0.167 µM), the MIC [8] was >64 µg/mL and the MIC [9] was >64 µg/mL. For the same compound, the MIC [10] was >64 µg/mL, the MIC [11] was >64 µg/mL and the MIC [12] was >64 µg/mL. The MIC [13] was >64 µg/mL, the MIC [14] was >64 µg/mL and the MIC [15] was >64 µg/mL. The MIC [16] was >32 µg/mL, the MIC [17] was >32 µg/mL and the MIC [18] was >32 µg/mL. For the same compound, the MIC [19] was >32 µg/mL, the MIC [20] was >32 µg/mL and the MIC [21] was >64 µg/mL. For the same compound, the MIC [22] was 0.5 µg/mL (≈ 0.696 µM), the MIC [23] was >64 µg/mL and the MIC [24] was 8 µg/mL (≈ 11.1 µM). The MIC [25] was >64 µg/mL, the MIC [26] was 16 µg/mL (≈ 22.3 µM) and the MIC [27] was >64 µg/mL. The stability [28] was “rather unstable” and the spontaneous resistance frequencies [29] was “in the same range”.
`CCC/C=C/C(=O)N[C@@H](Cc1ccccc1)C(=O)N[C@H]1COC(=O)[C@@H]2CCCN2C(=O)[C@H](C)NC(=O)[C@H](C)N(C)C(=O)[C@@H]2CCCN2C1=O` [ADEP7] (X1-FSP[NMeA]AP; ester 2-C) gave an MIC [1] of 4 µg/mL (≈ 5.88 µM), an MIC [3] of 0.5 µg/mL (≈ 0.734 µM) and an MIC [4] of 2 µg/mL (≈ 2.94 µM). For the same compound, the Resistance rate [30] was 4×10^−6, the Resistance rate [31] was 6×10^−7 and the “minimal inhibitory concentration (MIC) against S. aureus” value [32] was 8 µg/mL (≈ 11.8 µM).
